Structures are written as SMILES.

Usually IC50 stands for the midpoint of a concentration-inhibition curve. What is called inhibition is the percentage by which the read-out fell short of the control. A low value points to little suppression.

The test system of one test is MDA-MB-231. The experiment in a line: Cytotoxicity against human MDA-MB-231 cells assessed as decrease in cell viability after 24 hrs by MTT assay. The test is classed as functional, cell-based. The note with it: MDA-MB-231, 24 h.
The next test deals with K562. Nature of the test: Cytotoxicity against human K562 cells assessed as decrease in cell viability after 24 hrs by MTT assay. Type of test: functional, cell-based. The following applies: K562, 24 h.
In another test the test system is COLO 205. The experiment in a line: Cytotoxicity against human COLO205 cells assessed as decrease in cell viability after 24 hrs by MTT assay. The test is classed as functional, cell-based. The following applies: COLO 205, 24 h. (In general: Formazan colour is commonly taken as a measure of viable cells.)
The target in test [1] is T1, NAD-dependent protein deacetylase sirtuin-1 (Homo sapiens) (UniProt Q96EB6).
T1 sequence (whole entry): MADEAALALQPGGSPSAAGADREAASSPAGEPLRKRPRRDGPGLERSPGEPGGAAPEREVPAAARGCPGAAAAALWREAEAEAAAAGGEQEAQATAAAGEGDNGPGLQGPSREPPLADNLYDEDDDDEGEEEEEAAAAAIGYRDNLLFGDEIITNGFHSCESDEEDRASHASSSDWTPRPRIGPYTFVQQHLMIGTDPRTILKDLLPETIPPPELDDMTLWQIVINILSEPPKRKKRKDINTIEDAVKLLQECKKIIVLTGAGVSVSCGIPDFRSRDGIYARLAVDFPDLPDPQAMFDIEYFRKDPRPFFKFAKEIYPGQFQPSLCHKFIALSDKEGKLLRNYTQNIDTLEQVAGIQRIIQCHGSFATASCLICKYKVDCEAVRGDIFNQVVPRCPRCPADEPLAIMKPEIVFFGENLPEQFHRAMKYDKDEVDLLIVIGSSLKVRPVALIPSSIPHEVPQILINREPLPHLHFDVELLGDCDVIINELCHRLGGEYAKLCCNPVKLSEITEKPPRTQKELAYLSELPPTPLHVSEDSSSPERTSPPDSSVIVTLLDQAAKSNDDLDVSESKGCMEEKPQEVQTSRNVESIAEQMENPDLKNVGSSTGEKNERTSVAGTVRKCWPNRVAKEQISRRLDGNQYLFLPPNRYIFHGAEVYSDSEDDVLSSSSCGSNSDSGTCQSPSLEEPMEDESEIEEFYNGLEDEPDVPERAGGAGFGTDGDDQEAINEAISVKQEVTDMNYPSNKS
Nature of the test: Inhibition of human Sirt1 expressed in bacteria at 10 uM using fluorophorelabeled substrate peptide after 15 mins by fluorescence assay relative to control.

Regarding `CCCCCCCCCCCCCCCCN1C(=O)C2(NC(=O)c3c(sc4c3CCCC4)N2)c2ccccc21` (centres undefined), the half-maximal inhibitory concentration (IC50) in the test on MDA-MB-231 is 34 µM; in the test with K562, 19 µM; in the test with COLO 205, 18 µM. For the same molecule, the inhibition in test [1] fell in the range of 46 to 69%.
In the case of `CCCc1nn(C)c2c1NC1(CCCCCC1)NC2=O`, the results for the IC50 in the test on MDA-MB-231, with K562 and with COLO 205 were 52 µM, 21 µM and 26 µM, respectively.
On the same counts, the results for `CCN1C(=O)C2(NC(=O)c3c(sc4c3CCCC4)N2)c2ccccc21` (centres undefined) are 34 µM, 21 µM and 12 µM.
As for `CCCc1nn(C)c2c1NC1(NC2=O)C(=O)N(C(=O)OC(C)(C)C)c2ccccc21` (centres undefined), the IC50 in the test on MDA-MB-231 stood at 28 µM; in the test with K562, 15 µM; in the test on COLO 205, 10 µM. Further, the inhibition in test [1] was 46 to 69%.
With `CCCc1nn(C)c2c1NC1(NC2=O)C(=O)N(C)c2ccccc21` (centres undefined), the figures for the IC50 in the test on MDA-MB-231, in the test with K562 and in the test with COLO 205 were 34 µM, 20 µM and 15 µM, respectively.
`CC(C)N1C(=O)C2(NC(=O)c3c(sc4c3CCCC4)N2)c2ccccc21` (centres undefined): the IC50 is 22 µM in the test with MDA-MB-231, 12 µM in the test with K562 and 6 µM in the test with COLO 205. The molecule also displayed an inhibition in test [1] of 46 to 69%.
As to `CCCc1nn(C)c2c1NC1(CCCC1)NC2=O`, the IC50 amounted to 34 µM with MDA-MB-231, 14 µM in the test with K562 and 17 µM in the test on COLO 205.
On the same counts, the results for `CCCc1nn(C)c2c1NC1(CCC(C)(C)CC1)NC2=O` are 45 µM, 19 µM and 24 µM.
On the same counts, the results for `CCCCCCCCCCCCN1C(=O)C2(NC(=O)c3c(sc4c3CCCC4)N2)c2ccccc21` (centres undefined) are 29 µM, 27 µM and 16 µM.
On the same counts, the results for `CCCc1nn(C)c2c1NC1(NC2=O)C(=O)N(CC)c2ccccc21` (centres undefined) are 41 µM, 22 µM and 16 µM.
Turning to `CN1C(=O)C2(NC(=O)c3c(sc4c3CCCC4)N2)c2ccccc21` (centres undefined), the results for the IC50 with MDA-MB-231, in the test with K562 and in the test on COLO 205 were 39 µM, 16 µM and 9 µM, respectively. Besides, the inhibition in test [1] is 46 to 69%.
The matching figures for `CCCc1nn(C)c2c1NC1(NC2=O)C(=O)N(Cc2ccccc2)c2ccccc21` (centres undefined): 38 µM, 16 µM, 15 µM and 46 to 69%.
For `CCCc1nn(C)c2c1NC1(CCCCC1)NC2=O`, the IC50 with MDA-MB-231 is 35 µM; in the test on K562, 16 µM; with COLO 205 it was 18 µM.
